# Experimental data: US20190144867A1, “METHOD FOR MITIGATING METASTASIS” (RESEARCH FOUNDATION OF THE CITY UNIVERSITY OF NEW YORK, priority 2015, published 2019)
# Test system: SN12L1 metastatic renal carcinoma cells
# Assay: Modified Boyden chamber 3D migration/invasion with interstitial flow
# Assay type: cell-based, human
# Conditions: for normalized migration response to interstitial flow with MAPK signaling inhibitors: flow normalized to no-flow controls, FIG. 5; for migration response to interstitial flow following GAG enzymatic cleavage: 4h and 24h exposure to interstitial flow, normalized by no-flow controls
# Method: A modified Boyden chamber was used to apply interstitial flow forces to cells in a three-dimensional culture, mimicking those experienced by tumor cells within the interstitium. See Integr Biol (Camb) 2013; 5(11): 1334-43 for details. Briefly, cells were suspended in type I collagen (4 mg/ml), exposed to fluid flow forces via a Darcy flow apparatus (4 h), permitted to migrate for 24 h (without flow) through Transwell chambers (with 8μm pore filters) towards 1 nM TGF-α. Invasion rates were quantified by counting cells present on the underside of the filters. For these tests, only a 4 hour exposure to flow at the lowest shear stress level was applied using a 1 cm H2O hydrostatic pressure differential to drive the flow. Shear stress transmitted to the cell surface through the glycocalyx layer was estimated to be approximately 0.84 dynes/cm^2 and the interstitial flow velocity was 0.83 μm/sec as measured previously, which is in the physiologic range of tumor interstitial flows (0.1-2.0 μm/sec). In addition, baseline migration rates (without flow) for all clonal lines were determined. Based on proliferation rates, HS expression, baseline and flow-mediated migration rates, the CtGFP and shORG-8 cell lines were selected as a paired match for continued experimentation.
Molecule,normalized migration response to interstitial flow with MAPK signaling inhibitors,migration response to interstitial flow following GAG enzymatic cleavage (FIG. 4),"migration response to interstitial flow following GAG enzymatic cleavage (FIG. 4, listed as Hyaluronidase)","migration response to interstitial flow following GAG enzymatic cleavage (FIG. 4, listed as heparinase)"
"C[S+]([O-])c1ccc(-c2nc(-c3ccncc3)c(-c3ccc(F)cc3)[nH]2)cc1 (stereo not shown) [SB 203580, reference compound]",inhibited flow-induced enhancement of migration,–,–,–
hyaluronidase,–,greatly suppressed,significantly inhibit,–
heparinase III,–,greatly suppressed,–,significantly inhibit
"O=C1c2ccccc2-c2n[nH]c3cccc1c23 [JNK Inhibitor II, reference compound]",inhibited flow-induced enhancement of migration,–,–,–
"N#CC(=C(/N)Sc1ccccc1N)/C(C#N)=C(\N)Sc1ccccc1N [U0126, reference compound]",inhibited flow-induced enhancement of migration,–,–,–
